Assay results from US8263606B2 (Xenon Pharmaceuticals Inc., priority 2008, dated 2012).

What was measured:
[1] = test system: sodium channel; test: Guanidine influx assay (14C-guanidine radiotracer flux, in vitro); format: cell-based, human or rat; conditions: guanidine influx assay using a known cell line that expresses a sodium channel
Method in brief: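 Aconitine holds channels open while 14C-guanidine enters human or rat sodium-channel-expressing cells in choline-substituted low-sodium saline, with test agent present at ambient temperature. Retained tracer is scintillation-counted and IC50 fitted by a four-parameter logistic model.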

[2] = molecular target: CYP3A4 (Homo sapiens, UniProt P08684); test: Cytochrome P450 (CYP450) Inhibition Assay, CYP3A4 (Vivid fluorescence, BOMCC substrate); conditions: human, P450 Baculosomes (recombinant CYP3A4), probe BOMCC (Vivid substrate)
Sequence of CYP3A4 (P08684 whole entry): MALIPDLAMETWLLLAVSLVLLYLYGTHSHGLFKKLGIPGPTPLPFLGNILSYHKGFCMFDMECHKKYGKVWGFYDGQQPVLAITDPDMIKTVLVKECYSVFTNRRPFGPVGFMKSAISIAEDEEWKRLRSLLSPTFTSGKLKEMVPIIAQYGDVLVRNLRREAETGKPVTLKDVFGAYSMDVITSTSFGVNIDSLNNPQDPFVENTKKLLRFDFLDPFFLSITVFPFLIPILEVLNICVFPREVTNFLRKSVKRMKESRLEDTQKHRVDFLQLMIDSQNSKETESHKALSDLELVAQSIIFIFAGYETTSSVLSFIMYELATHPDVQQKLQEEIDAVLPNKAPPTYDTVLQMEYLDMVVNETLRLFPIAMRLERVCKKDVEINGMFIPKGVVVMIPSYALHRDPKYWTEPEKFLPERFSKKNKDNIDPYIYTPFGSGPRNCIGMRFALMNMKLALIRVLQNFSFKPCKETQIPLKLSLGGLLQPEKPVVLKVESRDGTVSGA

Structure (SMILES) | melting point [°C] | IC50 [1] [nM] | inhibition at 10 µM [2] [%]
CC(C)CCN1C(=O)C2(COc3cc(O)c(C(=O)C(F)(F)F)cc32)c2ccccc21 (stereo not drawn) [Example 11.50, 6-hydroxy-1′-(3-methylbutyl)-5-(trifluoroacetyl)spiro[1-benzofuran-3,3′-indol]-2′(1′H)-one] | 87 to 88 | 1000 to 10000 | > 50
O=C1N(Cc2ccc(C(F)(F)F)o2)c2ccccc2C12COc1cc(N[C@@H]3CCNC3)ccc12 (stereo partly drawn) [Example 11.52, 6-[(3R)-pyrrolidin-3-ylamino]-1′-{[5-(trifluoromethyl)furan-2-yl]methyl}spiro[1-benzofuran-3,3′-indol]-2′(1′H)-one] | 122 to 125 | 100 to 1000 | > 50
O=C1N(C[C@H]2CCCO2)c2ccccc2C12COc1cc(O)ccc12 (stereo partly drawn) [Example 11.53, 6-hydroxy-1′-[(2R)-tetrahydrofuran-2-ylmethyl]spiro[1-benzofuran-3,3′-indol]-2′(1′H)-one] | 72 to 74 | 100 to 1000 | < 50
Cl.O=C1N(C[C@H]2CCCO2)c2ccccc2C12COc1cc(O[C@H]3CCNC3)ccc12 (stereo partly drawn) [Example 11.56, 6-[(3S)-pyrrolidin-3-yloxy]-1′-[(2R)-tetrahydrofuran-2-ylmethyl]spiro[1-benzofuran-3,3′-indol]-2′(1′H)-one hydrochloride] | 119 to 121 | 1000 to 10000 | < 50

Results, then the compound that gave them:

melting point [°C] | IC50 [1] [nM] | inhibition at 10 µM [2] [%] | Structure (SMILES)
120 to 130 | 1000 to 10000 | < 50 | Cl.O=C1N(C[C@H]2CCCO2)c2ccccc2C12COc1cc(O[C@@H]3CCNC3)ccc12 (stereo partly drawn) [Example 11.58, 6-[(3R)-pyrrolidin-3-yloxy]-1′-[(2R)-tetrahydrofuran-2-ylmethyl]spiro[1-benzofuran-3,3′-indol]-2′(1′H)-one hydrochloride]
142 to 144 | 100 to 1000 | < 50 | O=C1COc2cc3c(cc21)C1(CO3)C(=O)N(C[C@H]2CCCO2)c2ccccc21 (stereo partly drawn) [Example 11.60, 1′-[(2R)-tetrahydrofuran-2-ylmethyl]spiro[benzo[1,2-b:5,4-b′]difuran-3,3′-indole]-2′,5(1′H,6H)-dione]
72 to 76 | 1000 to 10000 | > 50 | CN1C(=O)CC[C@H]1CN1C(=O)C2(COc3cc4c(cc32)CCO4)c2ccccc21 (stereo partly drawn) [Example 11.70, 1′-{[(2S)-1-methyl-5-oxopyrrolidin-2-yl]methyl}-5,6-dihydrospiro[benzo[1,2-b:5,4-b′]difuran-3,3′-indol]-2′(1′H)-one]
139 to 140 | 1 to 100 | > 50 | O=C1N(Cc2noc(C(F)(F)F)n2)c2ccccc2C12COc1cc3c(cc12)OCO3 (stereo not drawn) [Example 11.72, 1-{[5-(trifluoromethyl)-1,2,4-oxadiazol-3-yl]methyl}spiro[furo[2,3-f][1,3]benzodioxole-7,3′-indol]-2′(1′H)-one]
206 to 208 | 100 to 1000 | > 50 | CC(C)NC(=O)N1CCCC(CCN2C(=O)C3(COc4cc5c(cc43)OCO5)c3ccccc32)C1 (stereo not drawn) [Example 11.73, N-isopropyl-3-[2-(2′-oxospiro[furo[2,3-f][1,3]benzodioxole-7,3′-indol]-1′(2′H)-yl)ethyl]piperidine-1-carboxamide]
207 to 209 | 1 to 100 | > 50 | N#Cc1csc(CN2C(=O)C3(COc4cc5c(cc43)OCO5)c3ccccc32)c1 (stereo not drawn) [Example 11.74, 5-[(2′-oxospiro[furo[2,3-][1,3′]benzodioxole-7,3′-indol]-1′(2′H)-yl)methyl]thiophene-3-carbonitrile]
205 to 207 | 100 to 1000 | > 50 | N#Cc1cccc2c1NC(=O)C21COc2cc3c(cc21)OCO3 (stereo not drawn) [Example 11.75, 2′-oxo-1′,2′-dihydrospiro[furo[2,3-f][1,3]benzodioxole-7,3′-indole]-7′-carbonitrile]
